Test results published in patent publication US20240287138A1, “CYCLIC PEPTIDES FOR INHIBITING TNF RECEPTOR 1 ACTIVITY” (Merck Sharp & Dohme LLC, priority 2023, published 2024).
Numbered stars: 1 amine (or outer) side, 2 acyl side, 3 side chain; on linkers, the order of the positions; unused ones are H or OH. Bridge positions count the residues as written; N and C are the ends. Square brackets hold non-standard residues; d marks the D form. Peptide text beside a SMILES is read from it. * marks the point of attachment. Trp(7-aza,1-CH2COOH) = N[C@@H](Cc1cn(CC(=O)O)c2ncccc12)C(=O)O; Trp(βS-Me,7-OMe) = COc1cccc2c([C@H](C)[C@H](N)C(=O)O)c[nH]c12; Phe(4-CH2SO3H) = N[C@@H](Cc1ccc(CS(=O)(=O)O)cc1)C(=O)O; Trp(7-CN) = N#Cc1cccc2c(C[C@H](N)C(=O)O)c[nH]c12; Trp(7-Cl) = N[C@@H](Cc1c[nH]c2c(Cl)cccc12)C(=O)O; X20 = O=C1NCc2ccc(C[C@H](N[*:1])C(=O)[*:2])cc21; Phe(4-CONH2) = NC(=O)c1ccc(C[C@H](N)C(=O)O)cc1; Phe(4-COOH) = N[C@@H](Cc1ccc(C(=O)O)cc1)C(=O)O; 4Pal(3S-Me) = C[C@@H](c1ccncc1)[C@H](N)C(=O)O; Trp(7-aza) = N[C@@H](Cc1c[nH]c2ncccc12)C(=O)O; Pip(5R-OH) = O=C(O)[C@@H]1CC[C@@H](O)CN1; Nle(6-COOH) = N[C@@H](CCCCC(=O)O)C(=O)O; Tyr(2-F) = N[C@@H](Cc1ccc(O)cc1F)C(=O)O; X1 = O=C([C@@H]1CC[C@H](N[*:1])C1)[*:2]; X45 = O=C([C@H]1CC2(CC2)CN1[*:1])[*:2]; Val(3-OH) = CC(C)(O)[C@H](N)C(=O)O; Pip(4-aza) = O=C(O)[C@@H]1CNCCN1; 4Pal = N[C@@H](Cc1ccncc1)C(=O)O; NMeE = CN[C@@H](CCC(=O)O)C(=O)O; dHyp = O=C(O)[C@H]1C[C@H](O)CN1; Ahp(2) = CCCCC[C@H](N)C(=O)O; NMeS = CN[C@@H](CO)C(=O)O; hSer = N[C@@H](CCO)C(=O)O; αMeS = C[C@](N)(CO)C(=O)O; Carboxymethyl = O=C(O)C*; Nle = CCCC[C@H](N)C(=O)O; X37 = c1cncc(N*)c1; CF3 = FC(F)(F)*; Sar = CNCC(=O)O

Key:
[1] = target: T1, TNFα-induced NF-κB signal transduction pathway (TNFR1 signaling) in THP-1 cells (Homo sapiens, UniProt P19438); test: THP-1 Lucia NF-κB reporter cell assay, inhibition of TNFα-induced NF-κB signaling; format: cell-based; conditions: THP-1 NF-κB Lucia reporter cells, 10 ng/mL TNFα, 16-18 h, secreted luciferase; read-out: THP-1 IC50
T1 sequence (P19438 30-455): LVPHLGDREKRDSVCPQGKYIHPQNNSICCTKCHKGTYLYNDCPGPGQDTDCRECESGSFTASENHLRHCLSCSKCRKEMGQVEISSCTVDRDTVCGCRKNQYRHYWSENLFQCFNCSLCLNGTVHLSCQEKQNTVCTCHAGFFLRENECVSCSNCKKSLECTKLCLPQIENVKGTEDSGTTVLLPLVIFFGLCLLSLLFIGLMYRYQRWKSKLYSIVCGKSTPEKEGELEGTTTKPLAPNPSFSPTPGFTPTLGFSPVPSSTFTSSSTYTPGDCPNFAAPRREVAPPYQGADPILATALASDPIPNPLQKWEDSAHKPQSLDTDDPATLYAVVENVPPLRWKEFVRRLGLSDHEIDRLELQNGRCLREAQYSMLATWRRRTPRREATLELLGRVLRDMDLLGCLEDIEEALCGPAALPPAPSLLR
In short: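 Read-out: secreted Lucia luciferase luminescence (QUANTI-Luc) from supernatant after 16-18 h, 37 °C, 10 ng/mL rhTNFα. Peptide pretreatment 1 h at 37 °C; 20,000 cells/well, selection antibiotics omitted. IC50 via 4-parameter logistic model against min/max controls.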

[2] = target: T2, human soluble TNFR1 (sTNFR1) (Homo sapiens, UniProt P19438); test: Human sTNFR1-peptide displacement assay (LanthaScreen Eu TR-FRET binding assay)
T2 construct: made in house; host or cells: Sf21 (baculovirus)
T2 sequence (P19438 with tags, fused parts or gaps): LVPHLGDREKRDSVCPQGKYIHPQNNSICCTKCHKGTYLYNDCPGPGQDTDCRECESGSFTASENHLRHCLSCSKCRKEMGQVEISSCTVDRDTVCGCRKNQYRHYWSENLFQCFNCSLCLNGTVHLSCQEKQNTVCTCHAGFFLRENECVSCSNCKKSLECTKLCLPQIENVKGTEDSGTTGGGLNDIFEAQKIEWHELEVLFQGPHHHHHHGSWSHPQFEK
In short: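 Readout is the 665/615 nm TR-FRET ratio (Eu anti-His donor, streptavidin-Alexa647 acceptor), normalized to DMSO and saturating displacer, fit by Morrison-based five-parameter logistic for Kd^app. His-tagged sTNFR1 (1-211) prebound to 100 nM biotinylated peptide SEQ ID NO.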

Compound | IC50 [1] [nM] | Kd [2] [nM] | IC50 [2] [nM]
CCCCC[C@@H]1NC(=O)[C@@H]2CC[C@@H](C2)NC(=O)[C@H]([C@@H](C)c2c[nH]c3c(OC)cccc23)NC(=O)CN(C)C(=O)[C@H](Cc2ccc(C(N)=O)cc2)NC(=O)[C@H](Cc2ccc(C(N)=O)cc2)NC(=O)[C@](C)(CO)NC(=O)[C@H](Cc2c[nH]c3c(C#N)cccc23)NC(=O)[C@H](Cc2ccc(C(=O)O)cc2)NC(=O)[C@H](CC(N)=O)NC(=O)[C@H]2C[C@H](O)CN2C(=O)[C@H](Cc2c[nH]c3ccccc23)NC(=O)[C@H](CCOC)NC(=O)[C@H]([C@@H](C)c2ccncc2)NC1=O [SEQ ID NO. 154] (cyclo([Ahp(2)][4Pal(3S-Me)][hSer](Me)W[dHyp]N[Phe(4-COOH)][Trp(7-CN)][αMeS][Phe(4-CONH2)][Phe(4-CONH2)][Sar][Trp(βS-Me,7-OMe)][X1])) | 1.2 | 0.17 | –
CCCC[C@@H]1NC(=O)[C@@H]2CC[C@@H](C2)NC(=O)[C@H]([C@@H](C)c2c[nH]c3c(OC)cccc23)NC(=O)CN(C)C(=O)[C@H](Cc2ccc(C(N)=O)cc2)NC(=O)[C@H](Cc2ccc(C(N)=O)cc2)NC(=O)[C@](C)(CO)NC(=O)[C@H](Cc2c[nH]c3c(C#N)cccc23)NC(=O)[C@H](Cc2ccc3c(c2)C(=O)NC3)NC(=O)[C@H](CC(N)=O)NC(=O)[C@H]2C[C@H](OCC(=O)O)CN2C(=O)[C@H](Cc2cn(CC(=O)O)c3ncccc23)NC(=O)[C@@H]2CC[C@@H](O)CN2C(=O)[C@H](Cc2ccncc2)NC1=O [SEQ ID NO. 156] (cyclo([4Pal][Pip(5R-OH)][Trp(7-aza,1-CH2COOH)][dHyp](Carboxymethyl)N[X20][Trp(7-CN)][αMeS][Phe(4-CONH2)][Phe(4-CONH2)][Sar][Trp(βS-Me,7-OMe)][X1][Nle])) | 0.8 | 0.12 | –
CCCC[C@@H]1NC(=O)CSC[C@@H](C(N)=O)NC(=O)[C@H]([C@@H](C)c2c[nH]c3c(OC)cccc23)NC(=O)CN(C)C(=O)[C@H](Cc2ccc(OC(F)(F)F)cc2)NC(=O)[C@H](Cc2ccc(C(=O)O)cc2)NC(=O)[C@](C)(CO)NC(=O)[C@H](Cc2c[nH]c3c(Cl)cccc23)NC(=O)[C@H](Cc2ccncc2)NC(=O)[C@H](CC(N)=O)NC(=O)[C@H](CCC(=O)O)N(C)C(=O)[C@H](Cc2c[nH]c3ncccc23)NC(=O)[C@@H]2CNCCN2C(=O)[C@H](Cc2ccncc2)NC1=O [SEQ ID NO. 158] ({CH2CO}-[Nle][4Pal][Pip(4-aza)][Trp(7-aza)][NMeE]N[4Pal][Trp(7-Cl)][αMeS][Phe(4-COOH)]Y(CF3)[Sar][Trp(βS-Me,7-OMe)]C-NH2; thioether N-14) | 5.3 | – | 1.79
CCCC[C@@H]1NC(=O)CSC[C@@H](C(N)=O)NC(=O)[C@H]([C@@H](C)c2c[nH]c3c(OC)cccc23)NC(=O)CN(C)C(=O)[C@H](Cc2ccc(OC)cc2)NC(=O)[C@H](Cc2ccc(C(=O)O)cc2)NC(=O)[C@](C)(CO)NC(=O)[C@H](Cc2c[nH]c3c(Cl)cccc23)NC(=O)[C@H](Cc2ccc(C(N)=O)cc2)NC(=O)[C@H](CC(N)=O)NC(=O)[C@H](CCC(=O)O)N(C)C(=O)[C@H](Cc2c[nH]c3ccccc23)NC(=O)[C@@H]2CNCCN2C(=O)[C@H](Cc2ccncc2)NC1=O [SEQ ID NO. 162] ({CH2CO}-[Nle][4Pal][Pip(4-aza)]W[NMeE]N[Phe(4-CONH2)][Trp(7-Cl)][αMeS][Phe(4-COOH)]Y(Me)[Sar][Trp(βS-Me,7-OMe)]C-NH2; thioether N-14) | 0.1 | 0.56 | 0.69
CCCC[C@@H]1NC(=O)CSC[C@@H](C(N)=O)NC(=O)[C@H]([C@@H](C)c2c[nH]c3c(OC)cccc23)NC(=O)CN(C)C(=O)[C@H](Cc2ccc(O)cc2)NC(=O)[C@H](Cc2ccc(C(=O)O)cc2)NC(=O)[C@](C)(CO)NC(=O)[C@H](Cc2c[nH]c3c(Cl)cccc23)NC(=O)[C@H](Cc2ccncc2)NC(=O)[C@H](CC(N)=O)NC(=O)[C@H](CCC(=O)O)N(C)C(=O)[C@H](Cc2c[nH]c3ncccc23)NC(=O)[C@H](C(C)(C)O)NC(=O)[C@H](Cc2ccc(C(N)=O)cc2)NC1=O [SEQ ID NO. 164] ({CH2CO}-[Nle][Phe(4-CONH2)][Val(3-OH)][Trp(7-aza)][NMeE]N[4Pal][Trp(7-Cl)][αMeS][Phe(4-COOH)]Y[Sar][Trp(βS-Me,7-OMe)]C-NH2; thioether N-14) | 3.6 | 0.5 | 0.6
COc1cccc2c([C@H](C)[C@@H]3NC(=O)CN(C)C(=O)[C@H](Cc4ccc(O)cc4)NC(=O)[C@H](Cc4ccc(C(=O)O)cc4)NC(=O)[C@](C)(CO)NC(=O)[C@H](Cc4c[nH]c5c(Cl)cccc45)NC(=O)[C@H](Cc4ccncc4)NC(=O)[C@H](CC(N)=O)NC(=O)[C@H](CCC(=O)O)N(C)C(=O)[C@H](Cc4c[nH]c5ccccc45)NC(=O)[C@H](CO)N(C)C(=O)[C@H](Cc4ccncc4)NC(=O)[C@H](CCC(=O)Nc4cccnc4)NC(=O)[C@@H]4CC[C@@H](C4)NC3=O)c[nH]c12 [SEQ ID NO. 166] (cyclo([4Pal][NMeS]W[NMeE]N[4Pal][Trp(7-Cl)][αMeS][Phe(4-COOH)]Y[Sar][Trp(βS-Me,7-OMe)][X1]E(X37))) | 2.7 | 0.44 | 0.5
CCCC[C@@H]1NC(=O)CSC[C@@H](C(N)=O)NC(=O)[C@H]([C@@H](C)c2c[nH]c3c(OC)cccc23)NC(=O)CN(C)C(=O)[C@H](Cc2ccc(O)cc2)NC(=O)[C@H](Cc2ccc(C(=O)O)cc2)NC(=O)[C@](C)(CO)NC(=O)[C@H](Cc2c[nH]c3c(Cl)cccc23)NC(=O)[C@H](Cc2ccncc2)NC(=O)[C@H](CC(N)=O)NC(=O)[C@H]2CC3(CC3)CN2C(=O)[C@H](Cc2c[nH]c3ccccc23)NC(=O)[C@@H]2CNCCN2C(=O)[C@H](Cc2ccncc2)NC1=O [SEQ ID NO. 167] ({CH2CO}-[Nle][4Pal][Pip(4-aza)]W[X45]N[4Pal][Trp(7-Cl)][αMeS][Phe(4-COOH)]Y[Sar][Trp(βS-Me,7-OMe)]C-NH2; thioether N-14) | 2.6 | 0.48 | –
CCCC[C@@H]1NC(=O)[C@@H]2CC[C@@H](C2)NC(=O)[C@H]([C@@H](C)c2c[nH]c3c(OC)cccc23)NC(=O)CN(C)C(=O)[C@H](Cc2ccc(O)cc2)NC(=O)[C@H](Cc2ccc(C(=O)O)cc2)NC(=O)[C@](C)(CO)NC(=O)[C@H](Cc2c[nH]c3c(Cl)cccc23)NC(=O)[C@H](Cc2ccc(CS(=O)(=O)O)cc2)NC(=O)[C@H](CC(N)=O)NC(=O)[C@H](CCC(=O)O)N(C)C(=O)[C@H](Cc2c[nH]c3ccccc23)NC(=O)[C@@H]2CNCCN2C(=O)[C@H](Cc2ccncc2)NC1=O [SEQ ID NO. 171] (cyclo([4Pal][Pip(4-aza)]W[NMeE]N[Phe(4-CH2SO3H)][Trp(7-Cl)][αMeS][Phe(4-COOH)]Y[Sar][Trp(βS-Me,7-OMe)][X1][Nle])) | 0.9 | 0.19 | –
CCCC[C@@H]1NC(=O)[C@@H]2CC[C@@H](C2)NC(=O)[C@H]([C@@H](C)c2c[nH]c3c(OC)cccc23)NC(=O)CN(C)C(=O)[C@H](Cc2ccc(O)cc2F)NC(=O)[C@H](Cc2ccc(C(=O)O)cc2)NC(=O)[C@](C)(CO)NC(=O)[C@H](Cc2c[nH]c3c(Cl)cccc23)NC(=O)[C@H](Cc2ccncc2)NC(=O)[C@H](CC(N)=O)NC(=O)[C@H](CCC(=O)O)N(C)C(=O)[C@H](Cc2c[nH]c3ccccc23)NC(=O)[C@@H]2CNCCN2C(=O)[C@H](Cc2ccncc2)NC1=O [SEQ ID NO. 175] (cyclo([4Pal][Trp(7-Cl)][αMeS][Phe(4-COOH)][Tyr(2-F)][Sar][Trp(βS-Me,7-OMe)][X1][Nle][4Pal][Pip(4-aza)]W[NMeE]N)) | 0.9 | 0.22 | –
CCCCC[C@@H]1NC(=O)[C@@H]2CC[C@@H](C2)NC(=O)[C@H]([C@@H](C)c2c[nH]c3c(OC)cccc23)NC(=O)CN(C)C(=O)[C@H](Cc2ccc(C(N)=O)cc2)NC(=O)[C@H](Cc2ccc(C(N)=O)cc2)NC(=O)[C@](C)(CO)NC(=O)[C@H](Cc2c[nH]c3c(C#N)cccc23)NC(=O)[C@H](Cc2ccc(C(=O)O)cc2)NC(=O)[C@H](CC(N)=O)NC(=O)[C@H]2C[C@H](O)CN2C(=O)[C@H](Cc2c[nH]c3ccccc23)NC(=O)[C@H](CCCCC(=O)O)NC(=O)[C@H]([C@@H](C)c2ccncc2)NC1=O [SEQ ID NO. 176] (cyclo([Ahp(2)][4Pal(3S-Me)][Nle(6-COOH)]W[dHyp]N[Phe(4-COOH)][Trp(7-CN)][αMeS][Phe(4-CONH2)][Phe(4-CONH2)][Sar][Trp(βS-Me,7-OMe)][X1])) | 1 | 0.22 | –
